{
  "source": "patent US20090053152A1",
  "about": "“SKIN COSMETIC” (KAO Corporation, priority 2006, published 2009)",
  "key": {"[1]": {"test": "Solubility test in water or organic solvent", "format": "physicochemical", "details": "room temperature, visually observed; for Solubility in Ethyl acetate: 0.1 g sample in 1 ml ethyl acetate; for solubility: thermodynamic from solid", "protocol": "0.1 g of each sample was weighed and 1 ml of water or an organic solvent was accurately added thereto. After agitating the mixture with a test tube mixer (VORTEX), it was allowed to stand at room temperature and the state was visually observed. Solubility was evaluated as “o”, when a sample was completely dissolved. Solubility was evaluated as “Δ”, when a sample was approximately half dissolved. Solubility was evaluated as “x”, when a sample was almost not dissolved. Propylbiphenol that was a starting material for each Preparation Example was also evaluated as Comparative Example 1."}, "[2]": {"tested_on": "B16 melanoma cells", "test": "Melanogenesis inhibition test", "format": "cell-based", "details": "for IC50: Mus musculus; for Melanogenesis inhibition rate (%, vs control): 72 hours culture, melanin per protein", "protocol": "B16 melanoma cells were plated at 10^4 cells/well in a MEM medium containing 10 vol % fetal bovine serum in a 12-well plate and were precultured for 24 hours. After the preculture, the medium was replaced with a medium obtained by adding a predetermined concentration of the sample compound to the above medium to which is added 2 mmol/L of theophylline, and culture was carried out for 72 hours. […] Further, the cells were dissolved in a 1 mol/L aqueous sodium hydroxide solution containing 10 vol % dimethyl sulfoxide. The OD475 was measured and the value was used as an indicator of the amount of melanin. Thereafter, the amount of total protein in the solution was determined using Coomasie Plus Protein Assay Reagent Kit (manufactured by PIERCE) to calculate the amount of melanin per amount of protein. The melanogenesis inhibition rate (%) relative to a control was determined with a case where the sample compound was not added as the control.\nMelanogenesis inhibition curves of the monoacetyl and diacetyl derivatives of propylbiphenol of Preparation Example 1 according to the present invention were made based on the results of the melanogenesis inhibition test (FIGS. 6 and 7). IC50 values, which is the concentration values supposed to inhibit 50% of melanogenesis, were determined from the inhibition curves."}, "[3]": {"details": "0.1 g sample in 1 ml water, read-out: Solubility in Water"}, "[4]": {"details": "B16, determined from melanogenesis inhibition curves, read-out: IC50 value (concentration supposed to inhibit 50% of melanogenesis)"}, "[5]": {"details": "addition concentration 10 μg/ml"}},
  "note": "Read-outs that look alike come from different tables or passages of the source.",
  "data": [
    {"smiles": "CCCc1ccc(O)c(-c2cc(CCC)ccc2O)c1", "note": "[Propylbiphenol, 2,2′-dihydroxy-5,5′-di-n-propyl-biphenyl, reference compound]", "values": [
      {"measurement": "Solubility in Ethyl acetate", "setting": "[1]", "result": "∘"},
      {"measurement": "solubility", "setting": "[1]; organic solvent or mixture, 0.1 g sample in 1 ml methanol, read-out: Solubility in Methanol", "result": "25 to 100", "unit": "mg/mL"},
      {"measurement": "solubility", "setting": "[1]; organic solvent or mixture, 0.1 g sample in 1 ml n-hexane, read-out: Solubility in n-hexane", "result": "< 25", "unit": "mg/mL"},
      {"measurement": "solubility", "setting": "[1]; [3]", "result": "< 25", "unit": "mg/mL"},
      {"measurement": "IC50", "setting": "[2]; B16, read-out: IC50 value (concentration supposed to inhibit 50% of melanogenesis)", "result": 4, "unit": "µg/mL"}
    ]},
    {"smiles": "CCCc1ccc(O)c(-c2cc(CCC)ccc2OC(C)=O)c1", "note": "[Monoacetyl derivative]", "values": [
      {"measurement": "Solubility in Ethyl acetate", "setting": "[1]", "result": "∘"},
      {"measurement": "Solubility in Methanol", "setting": "[1]; 0.1 g sample in 1 ml methanol", "result": "∘"},
      {"measurement": "Solubility in n-hexane", "setting": "[1]; 0.1 g sample in 1 ml n-hexane", "result": "∘"},
      {"measurement": "solubility", "setting": "[1]; [3]", "result": "< 25", "unit": "mg/mL"},
      {"measurement": "IC50", "setting": "[2]; [4]", "result": 7, "unit": "µg/mL"},
      {"measurement": "Melanogenesis inhibition rate (%, vs control)", "setting": "[2]; addition concentration 1 μg/ml", "result": "−11.6", "unit": "%"},
      {"measurement": "Melanogenesis inhibition rate (%, vs control)", "setting": "[2]; addition concentration 3 μg/ml", "result": "−9.8", "unit": "%"},
      {"measurement": "Melanogenesis inhibition rate (%, vs control)", "setting": "[2]; [5]", "result": 100, "unit": "%"}
    ]},
    {"smiles": "CCCc1ccc(OC(=O)CC)c(-c2cc(CCC)ccc2OC(=O)CC)c1", "note": "[Dipropionyl derivative]", "values": [
      {"measurement": "Solubility in Ethyl acetate", "setting": "[1]", "result": "∘"},
      {"measurement": "Solubility in Methanol", "setting": "[1]; 0.1 g sample in 1 ml methanol", "result": "∘"},
      {"measurement": "Solubility in n-hexane", "setting": "[1]; 0.1 g sample in 1 ml n-hexane", "result": "∘"},
      {"measurement": "solubility", "setting": "[1]; [3]", "result": "< 25", "unit": "mg/mL"}
    ]},
    {"smiles": "CCCc1ccc(OC(C)=O)c(-c2cc(CCC)ccc2OC(C)=O)c1", "note": "[Diacetyl derivative]", "values": [
      {"measurement": "Solubility in Ethyl acetate", "setting": "[1]", "result": "∘"},
      {"measurement": "Solubility in Methanol", "setting": "[1]; 0.1 g sample in 1 ml methanol", "result": "∘"},
      {"measurement": "Solubility in n-hexane", "setting": "[1]; 0.1 g sample in 1 ml n-hexane", "result": "∘"},
      {"measurement": "solubility", "setting": "[1]; [3]", "result": "< 25", "unit": "mg/mL"},
      {"measurement": "IC50", "setting": "[2]; [4]", "result": 6.5, "unit": "µg/mL"},
      {"measurement": "Melanogenesis inhibition rate (%, vs control)", "setting": "[2]; addition concentration 1 μg/ml", "result": "−15.5", "unit": "%"},
      {"measurement": "Melanogenesis inhibition rate (%, vs control)", "setting": "[2]; addition concentration 3 μg/ml", "result": "−16.6", "unit": "%"},
      {"measurement": "Melanogenesis inhibition rate (%, vs control)", "setting": "[2]; [5]", "result": 72.0, "unit": "%"},
      {"measurement": "Melanogenesis inhibition rate (%, vs control)", "setting": "[2]; addition concentration 30 μg/ml", "result": 83.8, "unit": "%"}
    ]},
    {"smiles": "OC[C@H]1O[C@@H](Oc2ccc(O)cc2)[C@H](O)[C@@H](O)[C@@H]1O", "note": "[arbutin, reference compound]", "values": [
      {"measurement": "IC50", "setting": "[2]; [4]", "result": 20, "unit": "µg/mL"}
    ]},
    {"smiles": "CCCCCCCC(=O)Oc1ccc(CCC)cc1-c1cc(CCC)ccc1O", "note": "[Monooctanoyl derivative]", "values": [
      {"measurement": "Solubility in Ethyl acetate", "setting": "[1]", "result": "∘"},
      {"measurement": "Solubility in Methanol", "setting": "[1]; 0.1 g sample in 1 ml methanol", "result": "∘"},
      {"measurement": "Solubility in n-hexane", "setting": "[1]; 0.1 g sample in 1 ml n-hexane", "result": "∘"},
      {"measurement": "solubility", "setting": "[1]; [3]", "result": "< 25", "unit": "mg/mL"}
    ]}
  ]
}
